Holding throughout (format): cell-based, human
The test system of assay [1] is μ opioid R. Briefly: RT-PCR of μ opioid R mRNA in keratinocytes put in contact with actives. The following applies: for stimulation of mRNA synthesis of the 3 receptors (μ opioid R): positive controls in keratinocytes: TGF-β 1 ng/ml, TNF-α 100 ng/mL, IL-1α 50 pg/ml, quantitative RT-PCR (x2 or x.08 for the 3 inducers). An excerpt:
(§1) In particular, the extracts are obtained by macerating plants (preferably roots, rhizomes, stems, bark, flowers, fruits, seeds, germs, or leaves) at 1-10% (p/p), usually 1-5% in a solvent or a mixture of solvents, usually a mixture of water and alcohol, glycol, or polyol (such as ethanol, glycerol, butylene glycol and other glycols, xylitol, etc.) 100/0 to 0/100, and preferably in water. The extracts obtained are then filtered or distilled in order to recover the soluble portion, which is then filtered, preferably at 0.45 μm. Biotechnological hydrolysates are obtained via the fermentation of plant extracts in the presence of microorganisms usually from the family of lactic bacteria, in particular bactobacillus plantarum, or paracasei, and bifidobacterium, in particular longum or Saccharomyces. These hydrolysates are then filtered, preferably to 0.45 μm, in order to obtain the active components.
(§2) The characterized molecules are prepared via dissolution in a solvent, usually DMSO, ethanol, glycol, and in particular DMSO at a concentration of 0.1%.
(§3) The active components are tested for keratinocytes after dissolution in the culturing environment: usually between 0.1% and 2% (v/v) for plants and biotechnological hydrolysates and in particular from 0.5% to 1% and usually between 0.001% and 0.01% for characterized molecules. The present results are obtained with 1% in the culturing environment for plant extracts and biotechnological hydrolysates, and with 0.01% for characterized molecules.
(§4) Keratinocytes taken from plastic surgery on normal adults through enzymatic digestion have been amplified in a specific environment for keratinocytes and then seeded, for example at 50,000 per cm^2 in 24-well plates and cultivated in a single layer in a definite no-serum environment. Upon convergence, the cells are put in contact with diluted actives in the culturing environment, usually for 24 hours.
(§5) In parallel, an untreated control (environment alone) and 3 positive controls (TGF-β at 1 ng/ml, IL-1α at 50 pg/ml and TNF-α at 100 ng/mL) are usually carried out, for example on the same cultivation plate. TGF-β at 1 ng/ml, TNF-α at 100 ng/mL, and IL-1α at 50 pg/ml were previously tested and stimulation of mRNA synthesis of the 3 receptors induced by these 3 cytokins at these concentrations was verified through an analysis of mRNA, for example by quantatitive RT-PCR (x2 or x.08 for the 3 inducers). […]
(§6) The parameters of amplification have usually been the following: The technique of RT-PCR in real time is conducted with the “Quanti Tect SYBR Green RT-PCR” kit (Qiagen, France) on wells containing mRNA, in an OPTICON thermocycler, which carries out cycles of amplification. […] At the end of each cycle, fluorescence, which is proportional to the number of fragments amplified, is read. […]

In assay [2] the test system is MC-1R. Nature of the assay: RT-PCR of MC-1R mRNA in keratinocytes put in contact with actives. The following applies: for stimulation of mRNA synthesis of the 3 receptors (MC-1R): positive controls in keratinocytes: TGF-β 1 ng/ml, TNF-α 100 ng/mL, IL-1α 50 pg/ml, quantitative RT-PCR (x2 or x.08 for the 3 inducers).
Text: as §1, §2, §3, §4, §5, §6

Assay [3] deals with MC-2R. Briefly: RT-PCR of MC-2R mRNA in keratinocytes put in contact with actives. Particulars: for stimulation of mRNA synthesis of the 3 receptors (MC-2R): positive controls in keratinocytes: TGF-β 1 ng/ml, TNF-α 100 ng/mL, IL-1α 50 pg/ml, quantitative RT-PCR (x2 or x.08 for the 3 inducers).
Text: as §1, §2, §3, §4, §5, §6

Assay [4] relates to POMC. Briefly: RT-PCR of POMC mRNA in keratinocytes put in contact with actives. Particulars: mRNA vs untreated control, relative to actin, 24 hours, 1% plant extracts and biotechnological hydrolysates, 0.01% characterized molecules.
Text: as §1, with “components. […]” for “components.”
as §6

Where [5] appears, read: mRNA vs untreated control, relative to actin, keratinocytes, 24 hours, 1% plant extracts and biotechnological hydrolysates, 0.01% characterized molecules.

Regarding TNF-α, in assay [1], the “stimulation of mRNA synthesis of the 3 receptors (μ opioid R)” value (“stimulation … (μ opioid R)” for short) is given as “stimulation”. For the same molecule, the “stimulation of mRNA synthesis of the 3 receptors (MC-1R)” value (“stimulation of mRNA synthesis … (MC-1R)” for short) in assay [2] is reported as “stimulation”. Also, in assay [3], the “stimulation of mRNA synthesis of the 3 receptors (MC-2R)” value (from here on “stimulation of mRNA synthesis … (MC-2R)”) is listed as “stimulation”.

For the molecule `CC1=CC(=O)C2=C(C)CC(OC(=O)Cc3ccccc3)C3C(C)C(=O)OC3C12` (stereo not shown) [phenylacetic acid 3,6,9-trimethyl-2,7-dioxo-2,3,3a,4,5,7,9a,9b-octahydro-azuleno[4,5-b]furan-4-yl], in assay [1] (setting [5]), the “μ opioid R Control X:” value is reported as 1.0 Control X. Moreover, in assay [2] (setting [5]), the “MC-1R Control X:” value worked out at 20.0 Control X. Moreover, the “MC-2R Control X:” value in assay [3] (setting [5]) stood at 20.0 Control X. Also, the “POMC Control X:” value in assay [4] came to 1 Control X.

For TGF-β, the “stimulation … (μ opioid R)” value in assay [1] is given as “stimulation”. In addition, in assay [2], the “stimulation of mRNA synthesis … (MC-1R)” value is “stimulation”. The “stimulation of mRNA synthesis … (MC-2R)” value in assay [3] is given as “stimulation”.

Turning to “IL-1α: cytokine used as positive control at 50 pg/ml”, the “stimulation … (μ opioid R)” value in assay [1] was “stimulation”. The “stimulation of mRNA synthesis … (MC-1R)” value in assay [2] is “stimulation”. Besides, the “stimulation of mRNA synthesis … (MC-2R)” value in assay [3] is “stimulation”.

The record behind these values is patent US20100272699A1, “MC-1R, MC-2R, and/or µ OPIOID RECEPTORS STIMULATION” (BASF BEAUTY CARE SOLUTIONS FRANCE S.A.S., priority 2007, published 2010).
